In patent publication US9833497B2, “Human originated EGF domain proteins and use of the same” (CHENGDU SOURCEBIO LIMITED-LIABILITY COMPANY, priority 2013, dated 2017):

Assays:
Assay type in all cases: cell-based
Citrobacter diversus = assay: MIC against Gram-negative bacteria: Citrobacter diversus
Summary of the method: (§1)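 Purified recombinant human EGF domain proteins are tested by broth dilution in LB against a 5×10^5 CFU/mL inoculum, with two-fold serial dilutions run in triplicate. Plates are incubated at 37° C with shaking, and the MIC is read as the lowest protein concentration without growth.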

E. coli BL21 = assay: MIC against Gram-negative bacteria: E. coli BL21; details: for MIC (μg/mL) E. coli BL21 / MIC: E. coli BL21
Summary of the method: as §1

Proteus vulgaris = assay: MIC against Gram-negative bacteria: Proteus vulgaris
Summary of the method: as §1

Klebsiella pneumonia = assay: MIC against Gram-negative bacteria: Klebsiella pneumonia
Summary of the method: as §1

Serratia marcescens = assay: MIC against Gram-negative bacteria: Serratia marcescens
Summary of the method: as §1

Moraxella catarrhalis = assay: MIC against Gram-negative bacteria: Moraxella catarrhalis
Summary of the method: as §1

Proteus mirabilis = assay: MIC against Gram-negative bacteria: Proteus mirabilis
Summary of the method: as §1

E. coli DH5α = assay: Antibacterial activity: MIC and growth curve against E. coli DH5α in 96-well plate; details: minimal inhibitory concentration against E. coli DH5α; 96-well plate, 5×10^5 CFU/mL, 37° C., judged after 8 h
Summary of the method: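 Log-phase bacteria (OD600 ~0.5) resuspended in LB at 5×10^5 CFU/mL, exposed to recombinant protein at 50, 25, 12.5 μg/mL final in triplicate, 37 °C shaking at 175 rpm. OD600 read every 30 min; MIC is lowest concentration showing no growth.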

Aeromonas hydrophila = assay: MIC against Gram-negative bacteria: Aeromonas hydrophila
Summary of the method: as §1

Pseudomonas aeruginosa = assay: MIC against Gram-negative bacteria: Pseudomonas aeruginosa
Summary of the method: as §1

Enterobacter cloacae = assay: MIC against Gram-negative bacteria: Enterobacter cloacae
Summary of the method: as §1

[1] = C. diversus, 10 h cultivation at 37° C., 5×10^5 CFU/mL
[2] = 10 h cultivation at 37° C., 5×10^5 CFU/mL
[3] = P. vulgaris, 10 h cultivation at 37° C., 5×10^5 CFU/mL
[4] = K. pneumonia, 10 h cultivation at 37° C., 5×10^5 CFU/mL
[5] = S. marcescens, 10 h cultivation at 37° C., 5×10^5 CFU/mL
[6] = M. catarrhalis, 10 h cultivation at 37° C., 5×10^5 CFU/mL
[7] = P. mirabilis, 10 h cultivation at 37° C., 5×10^5 CFU/mL
[8] = A. hydrophila, 10 h cultivation at 37° C., 5×10^5 CFU/mL
[9] = P. aeruginosa, 10 h cultivation at 37° C., 5×10^5 CFU/mL
[10] = E. cloacae, 10 h cultivation at 37° C., 5×10^5 CFU/mL
[11] = Citrobacter diversus, 96-well plate, 5×10^5 CFU/mL, 37° C., 10 h
[12] = 96-well plate, 5×10^5 CFU/mL, 37° C., 10 h
[13] = Proteus vulgaris, 96-well plate, 5×10^5 CFU/mL, 37° C., 10 h
[14] = Klebsiella pneumonia, 96-well plate, 5×10^5 CFU/mL, 37° C., 10 h
[15] = Serratia marcescens, 96-well plate, 5×10^5 CFU/mL, 37° C., 10 h
[16] = Moraxella catarrhalis, 96-well plate, 5×10^5 CFU/mL, 37° C., 10 h
[17] = Proteus mirabilis, 96-well plate, 5×10^5 CFU/mL, 37° C., 10 h
[18] = Aeromonas hydrophila, 96-well plate, 5×10^5 CFU/mL, 37° C., 10 h
[19] = Pseudomonas aeruginosa, 96-well plate, 5×10^5 CFU/mL, 37° C., 10 h
[20] = Enterobacter cloacae, 96-well plate, 5×10^5 CFU/mL, 37° C., 10 h

PRT761 (RKDVCQAIDHGCEHICVNSDDSYTCECLEGFRLAEDGKRCR; listed as Homo sapiens)
12.5 µg/mL: MIC (μg/mL) C. diversus (Citrobacter diversus; [1]) | MIC (μg/mL) E. coli BL21 (E. coli BL21; [2]) | MIC (μg/mL) P. vulgaris (Proteus vulgaris; [3]) | MIC (μg/mL) K. pneumonia (Klebsiella pneumonia; [4])
25 µg/mL: MIC (μg/mL) S. marcescens (Serratia marcescens; [5]) | MIC (μg/mL) M. catarrhalis (Moraxella catarrhalis; [6]) | MIC (μg/mL) A. hydrophila (Aeromonas hydrophila; [8])
50 µg/mL: MIC (μg/mL) P. mirabilis (Proteus mirabilis; [7]) | MIC (E. coli DH5α) | MIC (μg/mL) P. aeruginosa (Pseudomonas aeruginosa; [9]) | MIC (μg/mL) E. cloacae (Enterobacter cloacae; [10])

PRT1043 (HGPNCSQECRCHNGGLCDRFTGQCRCAPGYTGDRCR; listed as Homo sapiens)
12.5 µg/mL: MIC (E. coli BL21; 10 h cultivation at 37° C.) | MIC (Proteus mirabilis; P. mirabilis, 10 h cultivation at 37° C.)
25 µg/mL: MIC (Moraxella catarrhalis; M. catarrhalis, 10 h cultivation at 37° C.) | MIC (Aeromonas hydrophila; A. hydrophila, 10 h cultivation at 37° C.) | MIC (Pseudomonas aeruginosa; P. aeruginosa, 10 h cultivation at 37° C.) | MIC (Enterobacter cloacae; E. cloacae, 10 h cultivation at 37° C.)
50 µg/mL: MIC (Citrobacter diversus; C. diversus, 10 h cultivation at 37° C.) | MIC (Proteus vulgaris; P. vulgaris, 10 h cultivation at 37° C.) | MIC (Klebsiella pneumonia; K. pneumonia, 10 h cultivation at 37° C.) | MIC (Serratia marcescens; S. marcescens, 10 h cultivation at 37° C.) | MIC (E. coli DH5α)

PRT35 (AMDLCARRLLDPCEHQCDPETGRREHRAAGECLCYEGYMKDPVHKHLCI; listed as Homo sapiens)
12.5 µg/mL: MIC (μg/mL) C. diversus (Citrobacter diversus; [11]) | MIC (μg/mL) K. pneumonia (Klebsiella pneumonia; [14]) | MIC (μg/mL) S. marcescens (Serratia marcescens; [15]) | MIC (μg/mL) P. mirabilis (Proteus mirabilis; [17]) | MIC (E. coli DH5α)
50 µg/mL: MIC (μg/mL) E. coli BL21 (E. coli BL21; [12]) | MIC (μg/mL) M. catarrhalis (Moraxella catarrhalis; [16]) | MIC (μg/mL) E. cloacae (Enterobacter cloacae; [20])
25 µg/mL: MIC (μg/mL) P. vulgaris (Proteus vulgaris; [13]) | MIC (μg/mL) A. hydrophila (Aeromonas hydrophila; [18]) | MIC (μg/mL) P. aeruginosa (Pseudomonas aeruginosa; [19])

PRT637 (DIDECVNNTVCDSHGFCDNTAGSFRCLCYQGFQAPQDG; listed as Homo sapiens)
50 µg/mL: MIC C. diversus (Citrobacter diversus; [12]) | MIC K. pneumonia (Klebsiella pneumonia; [12]) | MIC S. marcescens (Serratia marcescens; [12])
25 µg/mL: MIC P. vulgaris (Proteus vulgaris; [12]) | MIC M. catarrhalis (Moraxella catarrhalis; [12]) | MIC (E. coli DH5α) | MIC A. hydrophila (Aeromonas hydrophila; [12]) | MIC P. aeruginosa (Pseudomonas aeruginosa; [12])
12.5 µg/mL: MIC E. coli BL21 (E. coli BL21; [12]) | MIC P. mirabilis (Proteus mirabilis; [12]) | MIC E. cloacae (Enterobacter cloacae; [12])

PRT16 (EKSPCQPNPCHGAAPCRVLPEGGAQCECPLGREGTFCQ; listed as Homo sapiens)
25 µg/mL: MIC (μg/mL) C. diversus (Citrobacter diversus; [11]) | MIC (μg/mL) P. vulgaris (Proteus vulgaris; [13]) | MIC (μg/mL) S. marcescens (Serratia marcescens; [15]) | MIC (μg/mL) P. aeruginosa (Pseudomonas aeruginosa; [19])
50 µg/mL: MIC (μg/mL) P. mirabilis (Proteus mirabilis; [17]) | MIC (μg/mL) A. hydrophila (Aeromonas hydrophila; [18])
12.5 µg/mL: MIC (μg/mL) E. coli BL21 (E. coli BL21; [12]) | MIC (μg/mL) K. pneumonia (Klebsiella pneumonia; [14]) | MIC (μg/mL) M. catarrhalis (Moraxella catarrhalis; [16]) | MIC (E. coli DH5α) | MIC (μg/mL) E. cloacae (Enterobacter cloacae; [20])

PRT437 (DEDECAAGNPCSHSCHNAMGTYYCSCPKGLTIAADGRTCQ; listed as Homo sapiens)
25 µg/mL: MIC (Proteus vulgaris; [3]) | MIC (Klebsiella pneumonia; [4]) | MIC (Moraxella catarrhalis; [6]) | MIC (Aeromonas hydrophila; [8])
50 µg/mL: MIC (Citrobacter diversus; [1]) | MIC (Serratia marcescens; [5]) | MIC (E. coli DH5α) | MIC (Pseudomonas aeruginosa; [9])
12.5 µg/mL: MIC (E. coli BL21; [2]) | MIC (Proteus mirabilis; [7]) | MIC (Enterobacter cloacae; [10])

PRT452 (DIDECTEMPFVCSQKCENVIGSYICKCAPGYLREPDGKTC; listed as Homo sapiens)
50 µg/mL: MIC against C. diversus (Citrobacter diversus; [12]) | MIC against S. marcescens (Serratia marcescens; [12]) | MIC against E. cloacae (Enterobacter cloacae; [12])
12.5 µg/mL: MIC against E. coli BL21 (E. coli BL21; [12]) | MIC against K. pneumonia (Klebsiella pneumonia; [12]) | MIC against P. mirabilis (Proteus mirabilis; [12]) | MIC (E. coli DH5α) | MIC against A. hydrophila (Aeromonas hydrophila; [12]) | MIC against P. aeruginosa (Pseudomonas aeruginosa; [12])
25 µg/mL: MIC against P. vulgaris (Proteus vulgaris; [12]) | MIC against M. catarrhalis (Moraxella catarrhalis; [12])
